From ChEMBL document CHEMBL3997816, “Discovery and characterization of [(cyclopentyl)ethyl]benzoic acid inhibitors of microsomal prostaglandin E synthase-1” (Bioorg Med Chem Lett, 2017)
pIC50: −log10 of the molar value.

Legend:
Prostaglandin E synthase [1] = target: T1, Prostaglandin E synthase (Homo sapiens, UniProt O14684); assay: Inhibition of human mPGES1 expressed in HEK293 microsomes assessed as reduction in PGE2 production using PGH2 as substrate after 2.5 mins by LC-MS analysis
T1 sequence (O14684 whole entry): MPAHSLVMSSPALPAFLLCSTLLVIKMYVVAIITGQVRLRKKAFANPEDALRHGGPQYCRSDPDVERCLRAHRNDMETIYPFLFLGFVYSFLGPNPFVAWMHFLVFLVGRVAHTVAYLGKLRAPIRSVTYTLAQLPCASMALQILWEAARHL

[2] = target: T2, Prostaglandin E synthase (Homo sapiens) (UniProt O14684); assay: (§1) Inhibition of mPGES1 in human whole blood assessed as reduction in LPS-induced PGE2 production preincubated for 30 mins followed by LPS addition measured after 20 to 24 hrs by LC-MS analysis
T2 sequence (whole entry): T1 sequence (O14684 whole entry)

Prostaglandin E synthase [3] = target: T1, Prostaglandin E synthase; assay: as §1
[4] = Clearance in rat at 1 mg/kg, iv; format: ADME, organism-based; conditions: in vivo
CYP2C9 = CYP2C9 (Homo sapiens, UniProt P11712); assay: Inhibition of CYP2C9 (unknown origin) in microsomes at 10 uM relative to control; format: ADME
[5] = target: T3, Prostaglandin G/H synthase 2 (Homo sapiens, UniProt P35354); assay: Inhibition of COX2 in human A549 cells assessed as reduction in IL-1beta-induced PGI2 production up to 10 uM preincubated for 30 mins followed by IL-1beta addition measured after 18 hrs by enzyme immunoassay; format: cell-based; conditions: a549, 18 h
T3 sequence (P35354 whole entry): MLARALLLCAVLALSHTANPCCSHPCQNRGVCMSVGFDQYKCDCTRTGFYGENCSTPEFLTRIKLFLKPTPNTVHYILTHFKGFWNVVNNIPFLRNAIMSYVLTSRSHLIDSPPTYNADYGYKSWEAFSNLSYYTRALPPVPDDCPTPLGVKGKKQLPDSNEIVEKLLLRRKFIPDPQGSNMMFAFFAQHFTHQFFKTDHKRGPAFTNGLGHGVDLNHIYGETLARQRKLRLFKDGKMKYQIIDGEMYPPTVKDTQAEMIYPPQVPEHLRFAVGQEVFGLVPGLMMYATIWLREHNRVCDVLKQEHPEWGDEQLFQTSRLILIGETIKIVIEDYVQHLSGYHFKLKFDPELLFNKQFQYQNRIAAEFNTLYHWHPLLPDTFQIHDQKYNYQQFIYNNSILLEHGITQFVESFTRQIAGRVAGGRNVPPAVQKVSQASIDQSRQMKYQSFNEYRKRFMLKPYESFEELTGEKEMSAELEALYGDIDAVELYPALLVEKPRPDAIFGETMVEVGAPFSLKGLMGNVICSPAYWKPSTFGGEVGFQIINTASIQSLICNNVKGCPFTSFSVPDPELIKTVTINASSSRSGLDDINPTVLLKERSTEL

[6] = target: T4, Prostaglandin G/H synthase 1 (Homo sapiens, UniProt P23219); assay: Inhibition of COX1 in human whole blood assessed as effect on LPS-induced TXB2 level up to 10 uM preincubated for 30 mins followed by LPS addition measured after 20 to 24 hrs by LC-MS analysis
[7] = target: T4, Prostaglandin G/H synthase 1; assay: Inhibition of COX1 in human whole blood assessed as effect on LPS-induced PGF2alpha level up to 10 uM preincubated for 30 mins followed by LPS addition measured after 20 to 24 hrs by LC-MS analysis
[8] = target: T5, Prostaglandin G/H synthase 1 (Ovis aries, UniProt P05979); assay: Inhibition of ovine COX1 assessed as reduction in PGF2alpha production at 10 uM using arachidonic acid as substrate by colorimetric method; conditions: sheep
T5 sequence (P05979 whole entry): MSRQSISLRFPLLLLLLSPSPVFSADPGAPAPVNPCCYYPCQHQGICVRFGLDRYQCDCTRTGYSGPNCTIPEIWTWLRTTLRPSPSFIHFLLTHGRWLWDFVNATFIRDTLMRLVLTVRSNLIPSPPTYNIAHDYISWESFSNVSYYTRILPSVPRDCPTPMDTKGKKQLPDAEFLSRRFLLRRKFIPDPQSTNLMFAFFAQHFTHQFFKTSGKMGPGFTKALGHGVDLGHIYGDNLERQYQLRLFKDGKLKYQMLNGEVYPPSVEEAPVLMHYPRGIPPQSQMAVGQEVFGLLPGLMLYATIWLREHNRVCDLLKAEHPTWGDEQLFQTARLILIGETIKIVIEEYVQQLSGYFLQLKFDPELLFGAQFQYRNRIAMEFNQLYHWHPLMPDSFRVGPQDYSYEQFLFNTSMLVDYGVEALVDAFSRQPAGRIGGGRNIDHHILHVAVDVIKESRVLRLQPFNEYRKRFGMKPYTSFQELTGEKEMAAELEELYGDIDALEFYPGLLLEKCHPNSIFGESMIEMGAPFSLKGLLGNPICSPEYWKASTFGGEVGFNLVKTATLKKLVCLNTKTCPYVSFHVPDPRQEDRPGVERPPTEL

[9] = target: T3, Prostaglandin G/H synthase 2; assay: Inhibition of human COX2 assessed as reduction in PGF2alpha production at 10 uM using arachidonic acid as substrate by colorimetric method
[10] = Selectivity index, ratio of compound effect for inhibition of human mPGES1 expressed in HEK293 microsomes to compound effect for inhibition of ovine COX1
Homo sapiens = organism: Homo sapiens; assay: Selectivity index, ratio of compound effect for inhibition of human mPGES1 expressed in HEK293 microsomes to compound effect for inhibition of human COX2
[11] = target: Voltage-gated inwardly rectifying potassium channel KCNH2 (Homo sapiens, UniProt Q12809); assay: Inhibition of human ERG expressed in CHO cells at 10 uM by automated patch clamp method; format: cell-based
[12] = Clearance in dog at 1 mg/kg, iv; format: ADME, organism-based, Canis lupus familiaris; conditions: in vivo
[13] = Volume of distribution at steady state in rat at 1 mg/kg, iv; format: ADME, organism-based; conditions: in vivo, read-out: Vdss
[14] = Volume of distribution at steady state in dog at 1 mg/kg, iv; format: ADME, organism-based, Canis lupus familiaris; conditions: in vivo, read-out: Vdss
[15] = Cmax in rat at 5 mg/kg, po; format: ADME, organism-based; parameters: dose 5 mg/kg, route oral; conditions: in vivo
[16] = Cmax in dog at 5 mg/kg, po; format: ADME, organism-based, Canis lupus familiaris; parameters: dose 5 mg/kg, route oral; conditions: in vivo
[17] = Oral bioavailability in rat at 5 mg/kg; format: ADME, organism-based; conditions: in vivo
Rattus norvegicus = assay: Time at which plasma concentration stays above human whole blood IC80 level in rat at 5 mg/kg, po administered as single dose
Canis familiaris = assay: Time at which plasma concentration stays above human whole blood IC80 level in dog at 3 mg/kg, po administered as single dose; parameters: species or system Canis lupus familiaris
[18] = Oral bioavailability in dog at 3 mg/kg; conditions: in vivo
[19] = target: T4, Prostaglandin G/H synthase 1; assay: Inhibition of COX1 in human whole blood assessed as effect on LPS-induced TXB2 level preincubated for 30 mins followed by LPS addition measured after 20 to 24 hrs by LC-MS analysis
[20] = target: T4, Prostaglandin G/H synthase 1; assay: Inhibition of COX1 in human whole blood assessed as effect on LPS-induced PGF2alpha level preincubated for 30 mins followed by LPS addition measured after 20 to 24 hrs by LC-MS analysis
Prostaglandin E synthase [21] = target: T1, Prostaglandin E synthase; assay: Inhibition of mPGES1 in human A549 cells assessed as reduction in IL-1beta-induced PGE2 production preincubated for 30 mins followed by IL-1beta addition measured after 18 hrs by enzyme immunoassay; format: cell-based
[22] = target: T3, Prostaglandin G/H synthase 2; assay: Inhibition of COX2 in human A549 cells assessed as reduction in IL-1beta-induced PGI2 production preincubated for 30 mins followed by IL-1beta addition measured after 18 hrs by enzyme immunoassay; format: cell-based; conditions: a549, 18 h

T4 sequence (P23219 whole entry): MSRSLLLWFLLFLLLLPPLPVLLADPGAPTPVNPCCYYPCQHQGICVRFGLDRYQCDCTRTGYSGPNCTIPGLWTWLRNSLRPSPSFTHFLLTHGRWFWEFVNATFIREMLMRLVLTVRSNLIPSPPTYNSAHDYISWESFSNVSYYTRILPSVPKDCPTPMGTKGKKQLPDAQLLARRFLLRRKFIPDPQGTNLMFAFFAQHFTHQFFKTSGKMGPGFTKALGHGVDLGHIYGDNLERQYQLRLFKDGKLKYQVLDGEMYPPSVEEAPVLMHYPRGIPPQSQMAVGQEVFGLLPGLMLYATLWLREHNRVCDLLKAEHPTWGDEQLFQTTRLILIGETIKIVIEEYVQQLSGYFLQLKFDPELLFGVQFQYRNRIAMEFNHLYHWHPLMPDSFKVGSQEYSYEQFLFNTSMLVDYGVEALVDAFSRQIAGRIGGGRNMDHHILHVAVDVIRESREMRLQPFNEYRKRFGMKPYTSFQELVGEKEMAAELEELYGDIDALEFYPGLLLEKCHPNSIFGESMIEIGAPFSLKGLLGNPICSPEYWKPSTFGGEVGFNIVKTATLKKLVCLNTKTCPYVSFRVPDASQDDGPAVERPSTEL
Chain of CYP2C9 (P11712 whole entry): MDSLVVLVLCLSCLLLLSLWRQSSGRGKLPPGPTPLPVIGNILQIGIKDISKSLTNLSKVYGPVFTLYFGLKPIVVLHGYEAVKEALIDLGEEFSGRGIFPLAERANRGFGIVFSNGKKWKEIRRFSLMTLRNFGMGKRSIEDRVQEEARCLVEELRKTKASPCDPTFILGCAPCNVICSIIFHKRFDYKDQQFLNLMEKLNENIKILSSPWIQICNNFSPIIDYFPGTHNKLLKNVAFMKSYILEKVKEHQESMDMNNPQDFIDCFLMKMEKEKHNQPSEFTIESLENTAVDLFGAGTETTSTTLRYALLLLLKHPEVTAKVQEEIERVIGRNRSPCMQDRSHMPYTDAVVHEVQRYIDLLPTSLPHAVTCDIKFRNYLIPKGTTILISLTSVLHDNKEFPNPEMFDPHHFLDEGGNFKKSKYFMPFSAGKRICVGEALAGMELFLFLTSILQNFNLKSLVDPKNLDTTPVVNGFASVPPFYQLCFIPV
Chain of Voltage-gated inwardly rectifying potassium channel KCNH2 (Q12809 whole entry): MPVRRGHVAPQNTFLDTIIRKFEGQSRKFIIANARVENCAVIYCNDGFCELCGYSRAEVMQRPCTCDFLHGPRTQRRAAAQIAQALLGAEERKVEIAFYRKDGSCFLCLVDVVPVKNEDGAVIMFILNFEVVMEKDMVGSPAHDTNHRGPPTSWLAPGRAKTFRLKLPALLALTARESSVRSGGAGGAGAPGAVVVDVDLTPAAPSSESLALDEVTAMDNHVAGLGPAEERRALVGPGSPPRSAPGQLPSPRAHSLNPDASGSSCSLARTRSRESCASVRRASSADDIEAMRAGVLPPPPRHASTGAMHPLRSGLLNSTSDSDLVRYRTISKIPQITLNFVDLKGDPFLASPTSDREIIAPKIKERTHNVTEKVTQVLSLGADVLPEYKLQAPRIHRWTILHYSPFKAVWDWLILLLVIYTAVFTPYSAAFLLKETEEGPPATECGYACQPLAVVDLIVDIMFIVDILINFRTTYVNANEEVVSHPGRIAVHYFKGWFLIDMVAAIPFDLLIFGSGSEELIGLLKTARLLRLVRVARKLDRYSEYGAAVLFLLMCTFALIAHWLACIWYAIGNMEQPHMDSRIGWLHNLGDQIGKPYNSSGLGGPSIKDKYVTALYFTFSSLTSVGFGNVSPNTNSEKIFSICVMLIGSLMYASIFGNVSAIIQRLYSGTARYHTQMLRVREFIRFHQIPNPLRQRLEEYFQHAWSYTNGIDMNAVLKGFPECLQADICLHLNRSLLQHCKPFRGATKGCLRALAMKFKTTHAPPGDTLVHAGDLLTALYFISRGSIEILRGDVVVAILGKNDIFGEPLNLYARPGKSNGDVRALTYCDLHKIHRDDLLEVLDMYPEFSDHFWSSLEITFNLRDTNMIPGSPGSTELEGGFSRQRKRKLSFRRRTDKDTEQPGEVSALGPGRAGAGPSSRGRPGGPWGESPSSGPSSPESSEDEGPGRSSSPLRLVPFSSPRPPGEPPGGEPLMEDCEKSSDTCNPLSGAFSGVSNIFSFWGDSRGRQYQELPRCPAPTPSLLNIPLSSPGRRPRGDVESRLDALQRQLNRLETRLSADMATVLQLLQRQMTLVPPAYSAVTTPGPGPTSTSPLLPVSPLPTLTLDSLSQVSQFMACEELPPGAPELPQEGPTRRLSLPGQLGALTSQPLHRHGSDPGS

| Structure (SMILES) | pIC50 (Prostaglandin E synthase [1]) | IC80 [2] [nM] | pIC50 (Prostaglandin E synthase [3]) | clearance [4] [mL/min/kg] | inhibition at 10 µM (CYP2C9) [%] | further results |
| --- | --- | --- | --- | --- | --- | --- |
| O=C(O)c1cccnc1CC[C@@H]1CCC[C@@H]1NC(=O)C1CCN(c2ccc(C(F)(F)F)cc2)CC1 | 8.22 | 146 | 7.68 | 38 |  |  |
| O=C(O)c1ccc(Cl)cc1NC[C@@H]1CCC[C@@H]1NC(=O)C1CCN(c2ccccc2)CC1 | 8.70 | 1370 | 7.09 | 81 | 46 | inhibition (INH) [19]: Not Active; inhibition (INH) [20]: Not Active; pIC50 (Prostaglandin E synthase [21]): 7.68; inhibition (INH) [22]: Not Active |
| O=C(O)c1ccc(Cl)cc1OC[C@@H]1CCC[C@@H]1NC(=O)C1CCN(c2ccc(C(F)(F)F)cc2)CC1 | 8.70 | 25 | 8.10 | 57 | 39 |  |
| CC(C)(C)C(=O)N[C@H]1CCC[C@H]1CNc1cc(Cl)ccc1C(=O)O | 7.37 |  | 5.05 |  |  |  |
| O=C(O)c1ccc(Cl)cc1NC[C@@H]1CCC[C@@H]1NC(=O)C1CCN(c2ccc(C(F)(F)F)cc2)CC1 | 8.40 | 8 | 8.52 | 40 | 71 | inhibition (INH) [19]: Not Active; inhibition (INH) [20]: Not Active; pIC50 (Prostaglandin E synthase [21]): 8.46; inhibition (INH) [22]: Not Active |

More lines, in order of rising pIC50 (Prostaglandin E synthase [1]), values ahead:

| pIC50 (Prostaglandin E synthase [1]) | IC80 [2] [nM] | pIC50 (Prostaglandin E synthase [3]) | clearance [4] [mL/min/kg] | inhibition at 10 µM (CYP2C9) [%] | Structure (SMILES) | further results |
| --- | --- | --- | --- | --- | --- | --- |
| 8.70 | 267 | 7.47 | 6 | 22 | O=C(O)c1ccccc1CC[C@@H]1CCC[C@@H]1NC(=O)C1CCN(c2ccc(C(F)(F)F)cn2)CC1 |  |
| 8.70 | 40 | 8.30 | 5 | 5 | O=C(O)c1ccccc1CC[C@@H]1CCC[C@@H]1NC(=O)C1CCN(c2ccc(C(F)(F)F)cc2)CC1 |  |
| 9.00 | 24 | 8.22 | 31 | 14 | Cc1cccc2ccc(N3CCC(C(=O)N[C@H]4CCC[C@H]4CCc4ccccc4C(=O)O)CC3)nc12 | inhibition (INH) [5]: Not Active; inhibition (INH) [6]: Not Active; inhibition (INH) [7]: Not Active; inhibition (INH) [8]: Not Active; inhibition (INH) [9]: Not Active; Selectivity Index [10]: > 10000; Selectivity Index (Homo sapiens): > 10000; inhibition (INH) [11]: Not Active; clearance [12]: 6.5 mL/min/kg; Vd [13]: 4.8 L/kg; Vd [14]: 1.2 L/kg; Cmax [15]: 530 nM; Cmax [16]: 4000 nM; bioavailability [17]: 52%; Time (Rattus norvegicus): >12 h; Time (Canis familiaris): 24 h; bioavailability [18]: 68% |
| 9.00 | 5 | 9.00 | 16 | 51 | O=C(O)c1ccc(Cl)cc1CC[C@@H]1CCC[C@@H]1NC(=O)C1CCN(c2ccc(C(F)(F)F)cc2)CC1 |  |
| 9.00 | 43 | 8.00 | 17 | 32 | O=C(O)c1ccccc1CC[C@@H]1CCC[C@@H]1NC(=O)C1CCN(c2ccc(OC(F)(F)F)cc2)CC1 |  |
| 9.00 | 41 | 8.22 | 12 | 40 | O=C(O)c1ccc(F)cc1CC[C@@H]1CCC[C@@H]1NC(=O)C1CCN(c2ccc(C(F)(F)F)cc2)CC1 |  |
| 9.00 | 10 | 8.52 | 9 | 56 | Cc1ccc(C(=O)O)c(CC[C@@H]2CCC[C@@H]2NC(=O)C2CCN(c3ccc(C(F)(F)F)cc3)CC2)c1 |  |
